Like-named read-outs stand apart in the source and are kept apart here.
Assays:
Assay in all cases: time dependent inhibition of CYP450 in pooled human microsomes
Assay type in all cases: in vitro ADME
[1] = biological target: T1, CYP2B6 (Homo sapiens, UniProt P20813)
T1 construct: from tissue; host or cells: human liver microsomes (pooled in the time-dependent assay)
T1 sequence (P20813 1-491): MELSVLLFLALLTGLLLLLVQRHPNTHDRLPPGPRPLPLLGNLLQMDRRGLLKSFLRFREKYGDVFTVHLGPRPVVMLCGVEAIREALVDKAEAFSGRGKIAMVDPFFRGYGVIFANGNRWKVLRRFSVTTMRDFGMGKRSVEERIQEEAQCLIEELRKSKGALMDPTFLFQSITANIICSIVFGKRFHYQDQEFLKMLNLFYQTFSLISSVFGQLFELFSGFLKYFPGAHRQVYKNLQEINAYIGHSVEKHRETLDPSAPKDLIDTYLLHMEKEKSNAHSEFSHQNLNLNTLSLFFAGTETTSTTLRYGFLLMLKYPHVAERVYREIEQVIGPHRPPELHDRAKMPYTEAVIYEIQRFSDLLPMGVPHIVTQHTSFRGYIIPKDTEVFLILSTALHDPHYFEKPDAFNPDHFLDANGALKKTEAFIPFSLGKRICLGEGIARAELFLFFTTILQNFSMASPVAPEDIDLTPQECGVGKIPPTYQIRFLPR
Procedure: (§1) Time dependent inhibition: An assessment of the time-dependent Inhibitory potential of test compounds against the principal human cytochrome P450 isozymes was carried out using standard methods (Grimm et al, “The Conduct of in Vitro Studies to Address Time-Dependent Inhibition of Drug-Metabolizing Enzymes: A Perspective of the Pharmaceutical Research and Manufacturers of America”, Drug Metabolism and Disposition, 37 (7): 1355, 2009). […] Each compound was pre-incubated at 37° C. plus and minus NADPH for 30 min, and with 0 min pre-incubation for assessment of potential time dependent inhibition. LC-MS/MS was used to quantify metabolite formation. […] Note that, in Tables 8 and 9, the “Compound No” corresponds to the compound numbers in Table 1.

[2] = biological target: T2, CYP1A2 (Homo sapiens, UniProt P05177)
T2 construct: from tissue; host or cells: human liver microsomes (pooled in the time-dependent assay)
T2 sequence (P05177 1-516): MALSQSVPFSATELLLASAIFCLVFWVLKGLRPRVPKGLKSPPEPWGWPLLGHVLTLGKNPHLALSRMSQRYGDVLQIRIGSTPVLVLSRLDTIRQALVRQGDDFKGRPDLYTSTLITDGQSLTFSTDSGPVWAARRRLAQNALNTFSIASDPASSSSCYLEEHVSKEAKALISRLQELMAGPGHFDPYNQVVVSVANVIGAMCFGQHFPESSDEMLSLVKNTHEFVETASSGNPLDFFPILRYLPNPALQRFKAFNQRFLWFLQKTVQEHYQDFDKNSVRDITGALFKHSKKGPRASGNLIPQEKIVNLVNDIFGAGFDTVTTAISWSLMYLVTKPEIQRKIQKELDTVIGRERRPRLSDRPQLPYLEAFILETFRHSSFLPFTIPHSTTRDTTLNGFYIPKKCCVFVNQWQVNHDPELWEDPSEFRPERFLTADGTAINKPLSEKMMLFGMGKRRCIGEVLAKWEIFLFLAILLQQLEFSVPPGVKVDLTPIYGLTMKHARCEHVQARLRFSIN
Procedure: as §1

[3] = biological target: T3, CYP2D6 (Homo sapiens, UniProt P10635)
T3 construct: from tissue; host or cells: human liver microsomes (pooled in the time-dependent assay)
T3 sequence (P10635 whole entry): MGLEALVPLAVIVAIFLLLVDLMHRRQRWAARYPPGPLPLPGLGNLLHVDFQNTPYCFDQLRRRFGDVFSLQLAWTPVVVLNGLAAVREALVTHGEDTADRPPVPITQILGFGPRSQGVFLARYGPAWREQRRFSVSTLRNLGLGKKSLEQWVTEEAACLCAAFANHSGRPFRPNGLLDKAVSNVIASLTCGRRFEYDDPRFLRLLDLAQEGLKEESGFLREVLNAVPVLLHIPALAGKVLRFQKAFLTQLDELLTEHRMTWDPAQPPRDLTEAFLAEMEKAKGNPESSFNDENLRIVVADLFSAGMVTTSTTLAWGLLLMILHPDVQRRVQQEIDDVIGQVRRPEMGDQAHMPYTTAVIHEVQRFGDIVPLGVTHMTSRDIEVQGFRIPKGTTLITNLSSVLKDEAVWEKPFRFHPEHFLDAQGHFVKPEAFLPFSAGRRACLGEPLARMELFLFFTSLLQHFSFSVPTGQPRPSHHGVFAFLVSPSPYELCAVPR
Procedure: as §1

[4] = biological target: T4, CYP2C8 (Homo sapiens, UniProt P10632)
T4 construct: Pooled human microsomes and selective CYP probe substrates were used; from tissue; host or cells: pooled human (hepatic) microsomes
T4 sequence (P10632 1-490): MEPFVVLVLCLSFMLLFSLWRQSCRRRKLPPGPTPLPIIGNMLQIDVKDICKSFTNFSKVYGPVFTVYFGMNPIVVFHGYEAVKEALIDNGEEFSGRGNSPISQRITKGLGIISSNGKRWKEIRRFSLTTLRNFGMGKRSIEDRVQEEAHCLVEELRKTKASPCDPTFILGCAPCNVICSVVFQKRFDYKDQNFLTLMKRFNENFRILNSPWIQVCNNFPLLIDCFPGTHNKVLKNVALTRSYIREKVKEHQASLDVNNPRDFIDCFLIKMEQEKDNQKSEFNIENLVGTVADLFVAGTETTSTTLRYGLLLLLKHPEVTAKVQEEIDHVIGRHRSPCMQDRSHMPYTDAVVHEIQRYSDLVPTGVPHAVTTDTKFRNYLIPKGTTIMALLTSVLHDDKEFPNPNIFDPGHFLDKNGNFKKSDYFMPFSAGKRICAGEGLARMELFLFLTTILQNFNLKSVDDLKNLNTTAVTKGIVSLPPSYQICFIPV
Procedure: as §1

[5] = biological target: T5, CYP2C9 (Homo sapiens, UniProt P11712)
T5 construct: from tissue; host or cells: human liver microsomes (pooled in the time-dependent assay)
T5 sequence (P11712 whole entry): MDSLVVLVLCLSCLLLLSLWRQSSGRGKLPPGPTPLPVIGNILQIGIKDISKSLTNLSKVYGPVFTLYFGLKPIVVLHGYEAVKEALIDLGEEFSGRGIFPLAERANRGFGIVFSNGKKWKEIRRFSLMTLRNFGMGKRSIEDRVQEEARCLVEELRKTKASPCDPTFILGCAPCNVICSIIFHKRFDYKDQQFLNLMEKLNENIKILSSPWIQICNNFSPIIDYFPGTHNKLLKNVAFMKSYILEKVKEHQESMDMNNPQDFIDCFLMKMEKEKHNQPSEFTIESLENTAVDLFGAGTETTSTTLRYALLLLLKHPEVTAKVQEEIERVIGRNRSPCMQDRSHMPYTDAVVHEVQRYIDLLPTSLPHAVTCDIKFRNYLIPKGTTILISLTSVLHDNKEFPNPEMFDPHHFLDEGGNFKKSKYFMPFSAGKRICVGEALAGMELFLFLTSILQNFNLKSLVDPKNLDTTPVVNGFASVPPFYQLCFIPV
Procedure: as §1

[6] = biological target: T6, CYP3A4 (Homo sapiens, UniProt P08684)
T6 construct: from tissue; host or cells: human liver microsomes (pooled in the time-dependent assay)
T6 sequence (P08684 whole entry): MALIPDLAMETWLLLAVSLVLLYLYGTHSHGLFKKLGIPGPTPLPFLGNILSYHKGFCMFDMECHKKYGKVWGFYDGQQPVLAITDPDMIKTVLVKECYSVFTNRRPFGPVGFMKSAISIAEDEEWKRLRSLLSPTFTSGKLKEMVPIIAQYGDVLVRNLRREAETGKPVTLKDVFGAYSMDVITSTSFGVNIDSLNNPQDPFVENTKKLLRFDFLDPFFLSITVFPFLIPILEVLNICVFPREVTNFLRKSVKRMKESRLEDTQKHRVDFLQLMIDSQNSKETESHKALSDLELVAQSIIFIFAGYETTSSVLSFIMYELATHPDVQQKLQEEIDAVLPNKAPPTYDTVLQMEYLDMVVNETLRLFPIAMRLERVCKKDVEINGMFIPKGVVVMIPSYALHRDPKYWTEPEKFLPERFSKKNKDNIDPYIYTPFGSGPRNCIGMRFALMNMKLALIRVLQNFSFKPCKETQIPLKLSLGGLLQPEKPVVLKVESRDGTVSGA
Procedure: as §1

[7] = biological target: T7, CYP2C19 (Homo sapiens, UniProt P33261)
T7 construct: from tissue; host or cells: human liver microsomes (pooled in the time-dependent assay)
T7 sequence (P33261 whole entry): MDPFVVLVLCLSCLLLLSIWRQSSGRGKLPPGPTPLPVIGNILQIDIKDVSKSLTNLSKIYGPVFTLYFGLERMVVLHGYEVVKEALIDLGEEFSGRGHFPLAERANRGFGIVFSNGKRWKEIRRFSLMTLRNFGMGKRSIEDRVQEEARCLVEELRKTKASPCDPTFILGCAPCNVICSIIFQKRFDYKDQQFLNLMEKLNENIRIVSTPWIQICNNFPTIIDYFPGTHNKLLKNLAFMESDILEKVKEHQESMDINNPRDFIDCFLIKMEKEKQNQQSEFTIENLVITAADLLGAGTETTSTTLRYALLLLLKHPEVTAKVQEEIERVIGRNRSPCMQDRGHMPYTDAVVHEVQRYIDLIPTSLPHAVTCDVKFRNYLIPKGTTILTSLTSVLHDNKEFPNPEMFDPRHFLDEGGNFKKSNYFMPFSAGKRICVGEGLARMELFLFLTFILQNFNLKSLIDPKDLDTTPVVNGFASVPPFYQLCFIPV
Procedure: as §1

[8] = between 30 min pre-incubation plus NADPH and 0 min
[9] = pre-incubation 30 min (NO NADPH)

IC50 ([1]; 0 min pre-incubation, pooled human microsomes, read-out: IC50 CYP2B6 (reversible inhibition)): 26.2 µM | CYP2B6 IC50 fold shift [1, 8]: none | IC50 ([1]; pre-incubation 30 min (NADPH), read-out: CYP2B6 IC50): > 30 µM | IC50 ([1]; pre-incubation 30 min (NO NADPH), read-out: CYP2B6 IC50): 24.4 µM | IC50 ([2]; 0 min pre-incubation, pooled human microsomes, read-out: IC50 CYP1A2 (reversible inhibition)): 10 µM | CYP1A2 IC50 fold shift [2, 8]: 0.8 | IC50 ([2]; pre-incubation 30 min (NADPH), read-out: CYP1A2 IC50): 11.8 µM | IC50 ([2]; pre-incubation 30 min (NO NADPH), read-out: CYP1A2 IC50): 12 µM | IC50 ([3]; 0 min pre-incubation, pooled human microsomes, read-out: IC50 CYP2D6 (reversible inhibition)): 13.7 µM | CYP2D6 IC50 fold shift [3, 8]: 1.1 | IC50 ([3]; pre-incubation 30 min (NADPH), read-out: CYP2D6 IC50): 12.3 µM | IC50 ([3]; pre-incubation 30 min (NO NADPH), read-out: CYP2D6 IC50): 9.1 µM | CYP2C8 IC50 fold shift [4, 8]: none | IC50 ([4]; pre-incubation 0 min): > 30 µM | IC50 ([4]; pre-incubation 30 min (NADPH)): > 30 µM | IC50 [4, 9]: > 30 µM | CYP2C9 IC50 fold shift [5, 8]: none | IC50 ([5]; pre-incubation 0 min): > 30 µM | IC50 ([5]; pre-incubation 30 min (NADPH)): > 30 µM | IC50 [5, 9]: > 30 µM | CYP3A4-M IC50 fold shift [6, 8]: none | CYP3A4-T IC50 fold shift [6, 8]: none | IC50 ([6]; pre-incubation 0 min, read-out: CYP3A4-M IC50): > 30 µM | IC50 ([6]; pre-incubation 0 min, read-out: CYP3A4-T IC50): > 30 µM | IC50 ([6]; pre-incubation 30 min (NADPH), read-out: CYP3A4-M IC50): > 30 µM | IC50 ([6]; pre-incubation 30 min (NADPH), read-out: CYP3A4-T IC50): > 30 µM | IC50 ([6]; pre-incubation 30 min (NO NADPH), read-out: CYP3A4-M IC50): > 30 µM | IC50 ([6]; pre-incubation 30 min (NO NADPH), read-out: CYP3A4-T IC50): > 30 µM | CYP2C19 IC50 fold shift [7, 8]: none | IC50 ([7]; pre-incubation 0 min): > 30 µM | IC50 ([7]; pre-incubation 30 min (NADPH)): > 30 µM | IC50 [7, 9]: > 30 µM
SMILES: CO[C@H]1CC[C@H](NC(=O)c2nccc(-c3cncn3C)n2)CC1 [Compound 148, N-((1r,4r)-4-methoxycyclohexyl)-4-(1-methyl-1H-imidazol-5-yl)pyrimidine-2-carboxamide]
